The results in this text go back to PMC8588271 (Molecules, 2021).

Molecules are shown by their SMILES. “Also recorded” adds a separate entry of the source.

For data set [1], the system named is RAW 264.7 cells. As to the kind of experiment: Nitric oxide production (Griess reagent) in LPS-stimulated cells. Format: cell-based, murine. Particulars: RAW 264.7, 1 h pretreatment, LPS 0.5 μg/mL 24 h. Background: The Griess reaction detects nitrite, a stable product of nitric oxide.
Experimental: (§1) The macrophage-like murine cell line RAW 264.7 (KCLB number 40071; Korean Cell Line Bank, Seoul, Korea) was cultured in Dulbecco’s Modified Eagle Medium (DMEM, Sigma-Aldrich, St. Louis, MO, USA) supplemented with 10% heat-inactivated fetal bovine serum (FBS, Invitrogen, Burlington, ON, Canada) and 1% (w/v) antibiotic–antimycotic solution (Invitrogen, Grand Island, NY, USA) at 5% CO2 and 37 °C.
Nitrite accumulation was used as an indicator of NO production in the medium, and the nitrite level was determined by assaying the culture supernatants for nitrite using the Griess reagent (1% sulfanilamide, 0.1% N-(1-naphathyl)-ethylenediamine dihydrochloride, and 5% phosphoric acid). […] Then, 100 μL of cell culture supernatants were mixed with 100 μL of Griess reagent in a 96-well plate. Sodium nitrite was used to generate a standard curve and the concentration of nitrite was then measured by the absorbance at 540 nm using a microplate reader. All determinations were performed in triplicate.
Data set [2] in a line: DPPH radical scavenging assay (in vitro). As to conditions: 0.1 mM DPPH in MeOH, 30 min dark, room temperature, 540 nm. A general note: The DPPH test is a chemical assay of radical scavenging.
For data set [3], the target named is T1, BACE-1 (Homo sapiens, UniProt P56817).
T1 construct: purchased PanVera (Madison, WI, USA) / Thermo Fisher Scientific P2985
T1 sequence (P56817 46-501): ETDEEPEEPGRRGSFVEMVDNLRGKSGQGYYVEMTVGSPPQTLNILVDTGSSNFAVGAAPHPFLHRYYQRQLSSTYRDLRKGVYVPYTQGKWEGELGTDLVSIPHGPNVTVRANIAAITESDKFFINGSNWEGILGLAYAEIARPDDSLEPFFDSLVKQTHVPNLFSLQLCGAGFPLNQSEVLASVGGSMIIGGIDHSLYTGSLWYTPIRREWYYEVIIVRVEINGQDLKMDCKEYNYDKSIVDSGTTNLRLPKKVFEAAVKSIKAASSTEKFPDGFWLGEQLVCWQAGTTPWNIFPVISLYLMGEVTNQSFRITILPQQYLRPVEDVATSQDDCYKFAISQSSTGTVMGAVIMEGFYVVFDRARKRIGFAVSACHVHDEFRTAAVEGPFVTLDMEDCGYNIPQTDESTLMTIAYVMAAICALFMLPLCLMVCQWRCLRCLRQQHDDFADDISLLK
The data set is described as follows: BACE-1 FRET inhibition assay. Format: biochemical. As to conditions: FRET kit, 60 min room temperature, triplicate, tested up to 50 µM.
Experimental: The experiments were each performed in triplicates for all of the compounds.
A BACE-1 inhibition assay was conducted using a β-Secretase FRET kit (BACE-1, Thermo Fisher Sientific, San Diego, CA, USA) according to manufacturer instructions. […] The sample was diluted further in assay buffer (final concentrations of 50, 25, 12.5, 6.25, 3.12, 1.56, 0.78, 0.39, 0.2, and 0.1 µM in each well) and black 96-well microplates were mixed with 10 µL of BACE-1 substrate. Then, 10 µL of 3 × BACE-1 enzyme was added to each well to start the reaction. Plates were incubated at room temperature in the dark for 60 min. After incubation, 10 µL of 2.5 mM sodium acetate was added to each well to stop the reaction. Finally, multiwell spectrofluorometer instruments were used for a multimode plate reader (Multistkan^TM GO, Thermo Scientific, Waltham, MA, USA) at an excitation wavelength of 545 nm and an emission wavelength of 585 nm. The half-maximal inhibitory concentration (IC50) was calculated by plotting the obtained relative fluorescence unit per hour (RFU/h) against the logarithmic of the inhibitor concentration. All determinations were performed in triplicate.

Data set [4] has as its system RAW 264.7 cells. As to the kind of experiment: MTT cytotoxicity assay. Particulars: RAW 264.7, 24 h. The data set is classed as cell-based, murine. (Formazan colour is commonly taken as a measure of viable cells.)
Experimental: as §1
Cell cytotoxicity was determined by an MTT (3-(4,5)-dimethylthiazol-2-yl-2,5-diphenyltetrazolium bromide, Amresco, Solon, OH, USA) colorimetric assay. […] After incubation with test substances, MTT solutions (5 μL of a 5 mg/mL concentration in PBS) were added to the wells and incubated for 4 h at 37 °C. Then, treated with 100 μL of fresh DMSO to dissolve the crystals for 10 min, the cells were detected under a microplate reader (Thermo Scientific Inc., San Diego, CA, USA) to measure the absorbance at 570 nm. Relative cell viability was calculated by comparing the absorbance of the untreated control group. All experiments were performed in triplicate.
Data set [5] can be described thus: Stability in aqueous solution by HPLC purity. Format: physicochemical. Particulars: 10 mM in water, room temperature, HPLC UV 254 nm; ramalin started at 98%. The text has this: Therefore, to improve its stability and BBB penetration capacity, its structure was modified by replacing the phenolic hydroxyl groups at position two with either a methyl group or a fluorine atom and by changing their positions. Thus, several derivatives were obtained. Specifically, RA-2Me, RA-3Me, and RA-4Me were synthesized by changing the position of the methyl group, which is an electron-donating group, and RA-25Me and RA-34Me, with two methyl groups on the phenyl ring, were synthesized by introducing an extra methyl group. To investigate the effect of fluorine atoms, which are electron-withdrawing as opposed to the methyl group, RA-2F, RA-4F, RA-24F, and RA-pentafluoride (PF) were also successfully synthesized. […] AD-related therapeutic agents are required to penetrate the BBB and reach their target. […] Given that ramalin and its derivatives are water-soluble low-molecular-weight compounds and that their lipophilicities and hydrophilicities balance out, their influence on AlogP, which indicates lipophilicity, was not significant. Additionally, given their PSA values (90 Å^2 < PSA < 140 Å^2), they are considered to be advantageous in terms of BBB penetration.

With `N[C@@H](CCC(=O)NNc1ccccc1F)C(=O)O` [RA-2F, N^5-((2-Fluorophenyl)amino)-L-glutamine], in data set [1], the “NO inhibitory (anti-inflammatory) activity” value (from here on “NO inhibitory”) is recorded as “concentration-dependent NO inhibition”. Besides, the concentration for half-maximal inhibition (IC50) – broadly, the midpoint of a concentration-inhibition curve – in data set [2] came out at 4.42 µM; in data set [3], 18.8 ± 3.86 µM.

`Cc1ccccc1NNC(=O)CC[C@H](N)C(=O)O` [RA-2Me, N^5-(o-Tolylamino)-L-glutamine]: the “NO inhibitory” value in data set [1] is “weak anti-inflammatory effects”. In addition, the half-maximal inhibitory concentration (IC50) in data set [2] is 2.79 µM; in data set [3], 15 ± 4.92 µM.

Consider `Cc1cccc(NNC(=O)CC[C@H](N)C(=O)O)c1` [RA-3Me, N^5-(m-Tolylamino)-L-glutamine], for which, in data set [1], the “NO inhibitory” value was “weak anti-inflammatory effects”. Further, the IC50 in data set [2] was 5.3 µM; in data set [3] it was 22.5 ± 0.69 µM.

For the molecule `N[C@@H](CCC(=O)NNc1ccc(F)cc1)C(=O)O` [RA-4F, N^5-((4-Fluorophenyl)amino)-L-glutamine], the “NO inhibitory” value in data set [1] is “concentration-dependent NO inhibition”. The IC50 amounted to 4.16 µM in data set [2] and 20.1 ± 4.78 µM in data set [3].

For `Cc1ccc(NNC(=O)CC[C@H](N)C(=O)O)cc1` [RA-4Me, N^5-(p-Tolylamino)-L-glutamine], in data set [1], the “NO inhibitory” value was “weak anti-inflammatory effects”. Moreover, the IC50 was 3.91 µM in data set [2] and 13 ± 1.62 µM in data set [3].

On to `N[C@@H](CCC(=O)NNc1ccc(F)cc1F)C(=O)O` [RA-24F, N^5-((2,4-Difluorophenyl)amino)-L-glutamine], for which the “NO inhibitory” value in data set [1] is “concentration-dependent NO inhibition; also recorded: stronger anti-inflammatory effect than ramalin”. In data set [2], this molecule showed an IC50 of 5.32 µM. Also, the “Cytotoxicity (cell viability, MTT)” value in data set [4] was “without cytotoxicity”.

On to `Cc1ccc(C)c(NNC(=O)CC[C@H](N)C(=O)O)c1` [RA-25Me, N^5-((2,5-Dimethylphenyl)amino)-L-glutamine], for which, in data set [1], the “NO inhibitory” value is given as “concentration-dependent NO inhibition”. The IC50 in data set [2] came to 4.5 µM; in data set [3], 9.81 ± 1.21 µM.

With `Cc1ccc(NNC(=O)CC[C@H](N)C(=O)O)cc1C` [RA-34Me, N^5-((3,4-Dimethylphenyl)amino)-L-glutamine], the “NO inhibitory” value in data set [1] is recorded as “concentration-dependent NO inhibition”. Further, the half-inhibitory concentration (IC50) in data set [2] came to 4.46 µM; in data set [3], 13.1 ± 1.52 µM.

Regarding `N[C@@H](CCC(=O)NNc1c(F)c(F)c(F)c(F)c1F)C(=O)O` [RA-PF, N^5-((Perfluorophenyl)amino)-L-glutamine], the “NO inhibitory” value in data set [1] is listed as “concentration-dependent NO inhibition”. In data set [3], this molecule yielded an IC50 of 14.6 ± 6.08 µM.

Take `NC(CCC(=O)NNc1ccccc1O)C(=O)O` (stereo not drawn) [Ramalin, ramalin]: the “Purity after 14 h in water” value in data set [5] was determined as 83%.
